Laboratory results reported in US20260001884A1, “Heterocycle compounds for the treatment of cancer” (Hoffmann-La Roche Inc., priority 2022, published 2026).
pIC50: −log10 of the molar value.

Tests used:
[1] = target: CD73 (MDA-MB-231 cells) (Homo sapiens (Human), UniProt P21589); test: CD73 Cellular Assay; format: cell-based; settings: 10 μM AMP working solution, 45 min at 37° C., Malachite Green readout, read-out: Cellular IC50 against CD73
Description: Compound serial dilution (1:3) was prepared with Echo 555 liquid handler (Labcyte) into the corresponding wells of a 384-well plate. 40 μL of MDA-MB-231 cells (ATCC, HTB-26, breast cancer, final concentration at 20,000 cells/mL) suspended in assay buffer (25 mM Tris-HCl pH 7.5, 5 mM MgCl2, 0.01% BSA, 0.01% Brij-35) were added into the corresponding wells of the plate. After incubating with compounds for 30 minutes, 40 μL of AMP working solution (10 μM AMP, 25 mM Tris-HCl pH 7.5, 5 mM MgCl2, 0.01% BSA, 0.01% Brij-35) was added into each well in the assay plate. The assay plate was then incubated in a 5% CO2 incubator (Thermo Fisher Scientific) at 37° C. for 45 min. After the reaction was completed, 50 μL of the supernatants was collected and transferred into a new 384 well plate. 10 μL of Malachite A was added to each well in the assay plate and incubated for 10 minutes. 10u L of Malachite B was then added to each corresponding well of the plate and incubated for 30 minutes. Finally the absorbance value was read on the Envision plate reader at […]. Calculation percentage inhibition by using equation {% inhibition=100×[I−(X−MIN)/(MAX−MIN)]} where X equals to the well signal, Max equals signal of DMSO control and MIN equals signal of no cell control.

[2] = target: recombinant CD73 protein (Homo sapiens (Human), UniProt P21589); test: CD73 Biochemical Assay; settings: 0.2 nM recombinant CD73, 10 μM AMP working solution, Malachite Green readout; read-out: Enzymatic IC50 against CD73
Description: Compound serial dilution (1:3) was prepared with Echo 555 liquid handler (Labcyte) into the corresponding wells of a 384-well plate. 25 μL of enzyme working solution [0.2 nM recombinant CD73 protein (purchased from R&D Systems, Inc), 25 mM Tris-HCl pH 7.5, 5 mM MgCl2, 0.01% BSA, 0.01% Brij-35 non-ionic detergent] was added to the assay plate and incubated with compounds for 15 minutes at room temperature. After adding 25 μL of AMP working solution (10 μM AMP, 25 mM Tris-HCl pH 7.5, 5 mM MgCl2, 0.01% BSA, 0.01% Brij-35) into the assay plate, the reaction was incubated for 10 min at room temperature. 10 uL of Malachite Green A solution was then added to each well for 10 minutes incubation. 10 uL of Malachite B solution was added to each well and then incubated for another 30 minutes. Finally the absorbance value was read on the Envision plate reader (PerkinElmer) at […]. Calculation percentage inhibition by using equation {% inhibition=100×[I−(X−MIN)/(MAX−MIN)]} where X equals to the well signal, Max equals signal of DMSO control and MIN equals signal of no cell control.

Chain of CD73 (MDA-MB-231 cells) (P21589 27-574): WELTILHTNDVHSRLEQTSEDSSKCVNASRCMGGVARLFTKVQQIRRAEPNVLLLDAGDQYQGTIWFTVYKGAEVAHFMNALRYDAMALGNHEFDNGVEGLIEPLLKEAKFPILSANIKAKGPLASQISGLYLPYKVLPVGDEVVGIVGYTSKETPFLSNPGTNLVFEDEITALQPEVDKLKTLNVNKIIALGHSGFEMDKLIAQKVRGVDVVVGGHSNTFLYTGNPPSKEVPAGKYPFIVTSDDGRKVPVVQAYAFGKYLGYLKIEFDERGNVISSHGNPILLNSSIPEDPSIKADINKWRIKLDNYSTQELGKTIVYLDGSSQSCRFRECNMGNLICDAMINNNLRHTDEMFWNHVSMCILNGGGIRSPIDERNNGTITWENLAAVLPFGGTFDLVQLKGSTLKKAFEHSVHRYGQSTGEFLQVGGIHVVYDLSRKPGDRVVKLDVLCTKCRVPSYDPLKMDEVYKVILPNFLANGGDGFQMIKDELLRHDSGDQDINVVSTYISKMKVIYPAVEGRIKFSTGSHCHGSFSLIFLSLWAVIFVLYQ
Chain of recombinant CD73 protein (P21589 27-574, species assumed): as the sequence (P21589 27-574) above

pIC50 [1] | pIC50 [2] | Compound
7.13 | 6.21 | Cn1c(=O)[nH]c2nnc(-c3c[nH]c(=O)[nH]c3=O)cc21 [Example 1, 5-(5-methyl-6-oxo-7H-imidazo[4,5-c]pyridazin-3-yl)-1H-pyrimidine-2,4-dione]
6.81 | 6.60 | Cn1c(=O)n(C)c2nnc(-c3c[nH]c(=O)[nH]c3=O)cc21 [Example 2, 5-(5,7-dimethyl-6-oxo-imidazo[4,5-c]pyridazin-3-yl)-1H-pyrimidine-2,4-dione]
7.57 | 6.57 | CC(C)n1c(=O)n(C)c2nnc(-c3c[nH]c(=O)[nH]c3=O)cc21 [Example 3, 5-(5-isopropyl-7-methyl-6-oxo-imidazo[4.5-]pyridazin-3-yl)-1H-pyrimidine-2,4-dione]
6.97 | – | Cn1c(=O)n(Cc2ccccc2)c2cc(-c3c[nH]c(=O)[nH]c3=O)nnc21 [Example 4, 5-(5-benzyl-7-methyl-6-oxo-imidazo[4,5-c]pyridazin-3-yl)-1H-pyrimidine-2,4-dione]
